Results from US20020169111A1, “Reversal of multidrug resistance in human colon carcinoma cells” (American Cyanamid Comany, priority 1998, published 2002).

Test system: S1-M1-3.2 cells
Details: for Toxicity (>20%): compound alone, concentration that causes greater than 20% cell death of S1-M1-3.2 cells; for IC50: read-out: IC50 (μM), resensitizing S1-M1-3.2 cells to mitoxantrone, with 3.2 μM mitoxantrone, 50% cancer cell death
Experimental: One of the first reported molecules with reversing activity was verapamil, a calcium channel blocker. […] Cells were plated into 96-well dishes (100 μl/well) in growth medium supplemented with 5% FBS. […] Reversal agents were tested from 0.1-80 μM (triplicate points per dose). In parallel wells, cells were grown in the presence of the reversal agent alone.
The Difference Score is the difference in the percentage of cells surviving when the drug was given alone minus the percentage of cells surviving when the drug was given along with the antitumor agent.
Cell survival was estimated using the Sulforhodamine (SRB) assay.

| Structure (SMILES) | Toxicity (>20%) [µM] | IC50 [µM] |
| --- | --- | --- |
| CC(C)C[C@@H]1c2[nH]c3ccccc3c2C[C@H]2C(=O)N3CCC[C@H]3C(=O)N12 [Example 14a, (5aS,12R,14aS)-12-isobutyl-1,2,3,5a,6,11,12,14a-octahydro-5H,14H-pyrrolo[1″,2″:4′,5′]pyrazino[2′,1′:6,1]pyrido[3,4-b]indole-5,14-dione] | 80.0 | 80 |
| CC(C)C[C@H]1c2[nH]c3ccccc3c2C[C@H]2C(=O)N3CCC[C@H]3C(=O)N21 [Example 14b, (5aS,12S,14aS)-12-isobutyl-1,2,3,5a,6,11,12,14a-octahydro-5H,14H-pyrrolo[1″,2″:4′,5′]pyrazino[2′,1′:6,1]pyrido[3,4-b]indole-5,14-dione] | 35.0 | 1 |
| CC(C)C[C@@H]1c2[nH]c3ccccc3c2C[C@@H]2C(=O)N3CCC[C@H]3C(=O)N21 [Example 15a, (5aR,12R,14aS)-12-isobutyl-1,2,3,5a,6,11,12,14a-octahydro-5H,14H-pyrrolo[1″,2″:4′,5′]pyrazino[2′,1′:6,1]pyrido[3,4-b]indole-5,14-dione] | >80.0 | 35 |
| CC(C)C[C@H]1c2[nH]c3ccccc3c2C[C@@H]2C(=O)N3CCC[C@H]3C(=O)N21 [Example 15b, (5aR,12S,14aS)-12-isobutyl-1,2,3,5a,6,11,12,14a-octahydro-5H,14H-pyrrolo[1″,2″:4′,5′]pyrazino[2′,1′:6,1]pyrido[3,4-b]indole-5,14-dione] | >80.0 | 15 |
| CC(C)C[C@@H]1c2[nH]c3ccccc3c2C[C@H]2C(=O)N3CCC[C@@H]3C(=O)N12 [Example 16a, (5aS,12R,14aR)-12-isobutyl-1,2,3,5a,6,11,12,14a-octahydro-5H,14H-pyrrolo[1″,2″:4′,5′]pyrazino[2′,1′:6,1]pyrido[3,4-b]indole-5,14-dione] | >80.0 | > 80 |
| CC(C)C[C@H]1c2[nH]c3ccccc3c2C[C@H]2C(=O)N3CCC[C@@H]3C(=O)N21 [Example 16b, (5aS,12S,14aR)-12-isobutyl-1,2,3,5a,6,11,12,14a-octahydro-5H,14H-pyrrolo[1″,2″:4′,5′]pyrazino[2′,1′:6,1]pyrido[3,4-b]indole-5,14-dione] | >80.0 | 5.5 |
| CC(C)C[C@@H]1c2[nH]c3ccccc3c2C[C@@H]2C(=O)N3CCC[C@@H]3C(=O)N21 [Example 17a, (5aR,12R,14aR)-12-isobutyl-1,2,3,5a,6,11,12,14a-octahydro-5H,14H-pyrrolo[1″,2″:4′,5′]pyrazino[2′,1′:6,1]pyrido[3,4-b]indole-5,14-dione] | 50.0 | 35 |
| CC(C)C[C@H]1c2[nH]c3ccccc3c2C[C@@H]2C(=O)N3CCC[C@@H]3C(=O)N21 [Example 17b, (5aR,12S,14aR)-12-isobutyl-1,2,3,5a,6,11,12,14a-octahydro-5H,14H-pyrrolo[1″,2″:4′,5′]pyrazino[2′,1′:6,1]pyrido[3,4-b]indole-5,14-dione] | >80.0 | 3.5 |
| CC(C)CC1c2[nH]c3ccccc3c2CC2C(=O)N3CCCCC3C(=O)N21 [Example 18a, (6aS,13R,15aS)-13-isobutyl-1,2,3,4,6a,7,12,13,15a-nonahydro-6H,15H-pyrido[1″,2″:4′,5′]pyrazino[2′,1′:6,1]pyrido[3,4-b]indole-6H,15H-dione] | 15.0 | 50 |
| CC(C)CC1c2[nH]c3ccccc3c2CC2C(=O)N3CCCCC3C(=O)N21 [Example 18b, (6aS,13S,15aS)-13-isobutyl-1,2,3,4,6a,7,12,13,15a-nonahydro-6H,15H-pyrido[1″,2″:4′,5′]pyrazino[2′,1′:6,1]pyrido[3,4-b]indole-6H,15H-dione] | 25.0 | 1.5 |
| CC(C)CC1c2[nH]c3ccccc3c2CC2C(=O)N3CCCCC3C(=O)N21 [Example 19a, (6aR,13R,15aS)-13-isobutyl-1,2,3,4,6a,7,12,13,15a-nonahydro-6H,15H-pyrido[1″,2″:4′,5′]pyrazino[2′,1′:6,1]pyrido[3,4-b]indole-6H,15H-dione] | 50.0 | 11 |
| CC(C)CC1c2[nH]c3ccccc3c2CC2C(=O)N3CCCCC3C(=O)N21 [Example 19b, (6aR,13S,15aS-13-isobutyl-1,2,3,4,6a,7,12,13,15a-nonahydro-6H,15H-pyrido[1″,2″:4′,5′]pyrazino[2′,1′:6,1]pyrido[3,4-b]indole-6H,15H-dione] | >80.0 | 4 |
| CC(C)CC1c2[nH]c3ccccc3c2CC2C(=O)N3CCCCC3C(=O)N21 [Example 20a, (6aS,13R,15aR)-13-isobutyl-1,2,3,4,6a,7,12,13,15a-nonahydro-6H,15H-pyrido[1″,2″:4′,5′]pyrazino[2′,1′:6,1]pyrido[3,4-b]indole-6H,15H-dione] | 80.0 | 30 |
| CC(C)CC1c2[nH]c3ccccc3c2CC2C(=O)N3CCCCC3C(=O)N21 [Example 20b, (6aS,13S,15aR)-13-isobutyl-1,2,3,4,6a,7,12,13,15a-nonahydro-6H,15H-pyrido[1″,2″:4′,5′]pyrazino[2′,1′:6,1]pyrido[3,4-b]indole-6H,15H-dione] | 50.0 | 2 |
| CC(C)CC1c2[nH]c3ccccc3c2CC2C(=O)N3CCCCC3C(=O)N21 [Example 21a, (6aR,13R,15aR)-13-isobutyl-1,2,3,4,6a,7,12,13,15a-nonahydro-6H,15H-pyrido[1″,2″:4′,5′]pyrazino[2′,1′:6,1]pyrido[3,4-b]indole-6H,15H-dione] | 10.0 | 10.5 |
| CC(C)CC1c2[nH]c3ccccc3c2CC2C(=O)N3CCCCC3C(=O)N21 [Example 21b, (6aR,13S,15aR)-13-isobutyl-1,2,3,4,6a,7,12,13,15a-nonahydro-6H,15H-pyrido[1″,2″:4′,5′]pyrazino[2′,1′:6,1]pyrido[3,4-b]indole-6H,15H-dione] | >80.0 | 6 |
| CC(C)C[C@@H]1c2[nH]c3ccccc3c2C[C@H]2C(=O)N3CC[C@H]3C(=O)N12 [Example 22a, (4aS,11R,13aS)-11-isobutyl-1,4a,5,10,11,13a-hexahydro-4H-azeto[1″,2″:4′,5′]pyrazino[2′,1′:6,1]pyrido[3,4-b]indole-4,13(2H)-dione] | 80.0 | 15 |
| CC(C)C[C@H]1c2[nH]c3ccccc3c2C[C@H]2C(=O)N3CC[C@H]3C(=O)N21 [Example 22b, (4aS,11S,13aS)-11-isobutyl-1,4a,5,10,11,13a-hexahydro-4H-azeto[1″,2″:4′,5′]pyrazino[2′,1′:6,1]pyrido[3,4-b]indole-4,13(2H)-dione] | >80.0 | 2.5 |
| O=C1[C@@H]2Cc3c([nH]c4ccccc34)[C@@H](CCCCCc3ccccc3)N2C(=O)[C@@H]2CCCN12 [Example 23a, (5aS,12R,14aS)-12-(5-phenylpentyl)-1,2,3,5a,6,11,12,14a-octahydro-5H,14H-pyrrolo[1″,2″:4′,5′]pyrazino[2′,1′:6,1]pyrido[3,4-b]indole-5,14-dione] | 7.5 | 0.3 |
| O=C1[C@@H]2Cc3c([nH]c4ccccc34)[C@H](CCCCCc3ccccc3)N2C(=O)[C@@H]2CCCN12 [Example 23b, (5aS,12S,14aS)-12-(5-phenylpentyl)-1,2,3,5a,6,11,12,14a-octahydro-5H,14H-pyrrolo[1″,2″:4′,5′]pyrazino[2′,1′:6,1]pyrido[3,4-b]indole-5,14-dione] | >80 | 3 |
| O=C(NCCC[C@@H]1c2[nH]c3ccccc3c2C[C@H]2C(=O)N3CCC[C@H]3C(=O)N12)OCc1ccccc1 [Example 24a, Benzyl 3-[(5aS,12R,14aS)-5,14-dioxo-2,3,5a,6,11,12,14,14a-octahydro-1H,5H-pyrrolo[1″,2″:4′,5′]pyrazino[2′,1′:6,1]pyrido[3,4-b]indol-12-yl]propylcarbamate] | 50 | 10 |
| O=C(NCCC[C@H]1c2[nH]c3ccccc3c2C[C@H]2C(=O)N3CCC[C@H]3C(=O)N21)OCc1ccccc1 [Example 24b, Benzyl 3-[(5aS,12S,14aS)-5,14-dioxo-2,3,5a,6,11,12,14,14a-octahydro-1H,5H-pyrrolo[1″,2″:4′,5′]pyrazino[2′,1′:6,1]pyrido[3,4-b]indol-12-yl]propylcarbamate] | 20 | 2 |
| O=C1[C@@H]2Cc3c([nH]c4ccccc34)CN2C(=O)[C@@H]2CCCN12 [Example 25, (5aS,14aS)-1,2,3,5a,6,11,12,14a-octahydro-5H,14H-pyrrolo[1″,2″:4′,5′]pyrazino[2′,1′:6,1]pyrido[3,4-b]indole-5,14-dione] | >80 | 15 |
| C[C@H]1c2[nH]c3ccccc3c2C[C@H]2C(=O)N3CCC[C@H]3C(=O)N21 [Example 26, (5aS,12S,14aS)-12-methyl-1,2,3,5a,6,11,12,14a-octahydro-5H,14H-pyrrolo[1″,2″:4′,5′]pyrazino[2′,1′:6,1]pyrido[3,4-b]indole-5,14-dione] | >80.0 | 7 |
| CC(C)=C[C@H]1c2[nH]c3ccccc3c2C[C@H]2C(=O)N3CCC[C@H]3C(=O)N21 [Example 27] | >80 | 2.5 |
| CCCCCCCCC[C@H]1c2[nH]c3ccccc3c2C[C@H]2C(=O)N3CCC[C@H]3C(=O)N21 [Example 28, (5aS,12S,14aS)-12-nonyl-1,2,3,5a,6,11,12,14a-octahydro-5H,14H-pyrrolo[1″,2″:4′,5′]pyrazino[2′,1′:6,1]pyrido[3,4-b]Indole-5,14-dione] | 7.0 | 0.25 |
